The values below come from patent publication US7998493B2, “Cosmetic or dermopharmaceutical compositions which are used to reduce bags and circles under the eyes” (Sederma SAS, priority 2002, dated 2011).

The subject of data set [1] is Normal human keratinocytes and fibroblasts. The data set is described as follows: Cell viability by conventional MTT test. Format: cell-based. To be noted: maximum concentration used (45 ppm). The method, then:
Normal human keratinocytes and fibroblasts are cultured in a conventional medium in the presence or absence of various concentrations (10-45 ppm) of peptide Pal-GQPR (SEQ ID NO:2). After 24 hours the cells are rinsed in the same medium without Pal-GQPR (SEQ ID NO:2) and, after being subjected to irradiation of 35 mJ/cm^2, the same cells are returned to the culture for 48 hours, without Pal-GQPR (SEQ ID NO:2) or in its presence in the same concentrations as during the initial culture period. Cellular IL-6 is then determined using a standard ELISA test kit.
In parallel with this, to make certain that the concentration reductions observed were not due to cell mortality induced by the peptide itself, viability of the cells was verified by the conventional MTT test.

For data set [2], the target named is Converting enzyme (EC 3.4.15.1) (Homo sapiens, UniProt P12821). The data set is described as follows: ACE-inhibition test (FAPGG decomposition, ΔOD at 340 nm; derived from Sigma Diagnostics method No. 305-UV). It is filed as biochemical. To be noted: for ΔOD: 340 nm, mean of five tests. From the text:
The test is derived from Sigma Diagnostics method No. 305-UV.
Converting enzyme (EC 3.4.15.1) decomposes synthetic tripeptide FAPGG into FAP+glycylglycine. The change in optical density (ΔOD) at 340 nm is directly proportional to disappearance of the FAPGG, which allows a quantification of the converting enzyme activity.
The inhibiting effect of a compound is investigated according to the same principle, but in the presence of various concentrations of the test compounds.

Data set [3] concerns the target angiotensin converting enzyme (EC 3.4.15.1). The data set is described as follows: cell-based or functional assay.
Data set [4] concerns T1, H-Val-Trp.
T1 sequence: VW

Peptide text beside a SMILES is read from it. * marks the point of attachment. Palmitoyl = CCCCCCCCCCCCCCCC(=O)*

Converting enzyme (EC 3.4.15.1), sequence (P12821 30-1306): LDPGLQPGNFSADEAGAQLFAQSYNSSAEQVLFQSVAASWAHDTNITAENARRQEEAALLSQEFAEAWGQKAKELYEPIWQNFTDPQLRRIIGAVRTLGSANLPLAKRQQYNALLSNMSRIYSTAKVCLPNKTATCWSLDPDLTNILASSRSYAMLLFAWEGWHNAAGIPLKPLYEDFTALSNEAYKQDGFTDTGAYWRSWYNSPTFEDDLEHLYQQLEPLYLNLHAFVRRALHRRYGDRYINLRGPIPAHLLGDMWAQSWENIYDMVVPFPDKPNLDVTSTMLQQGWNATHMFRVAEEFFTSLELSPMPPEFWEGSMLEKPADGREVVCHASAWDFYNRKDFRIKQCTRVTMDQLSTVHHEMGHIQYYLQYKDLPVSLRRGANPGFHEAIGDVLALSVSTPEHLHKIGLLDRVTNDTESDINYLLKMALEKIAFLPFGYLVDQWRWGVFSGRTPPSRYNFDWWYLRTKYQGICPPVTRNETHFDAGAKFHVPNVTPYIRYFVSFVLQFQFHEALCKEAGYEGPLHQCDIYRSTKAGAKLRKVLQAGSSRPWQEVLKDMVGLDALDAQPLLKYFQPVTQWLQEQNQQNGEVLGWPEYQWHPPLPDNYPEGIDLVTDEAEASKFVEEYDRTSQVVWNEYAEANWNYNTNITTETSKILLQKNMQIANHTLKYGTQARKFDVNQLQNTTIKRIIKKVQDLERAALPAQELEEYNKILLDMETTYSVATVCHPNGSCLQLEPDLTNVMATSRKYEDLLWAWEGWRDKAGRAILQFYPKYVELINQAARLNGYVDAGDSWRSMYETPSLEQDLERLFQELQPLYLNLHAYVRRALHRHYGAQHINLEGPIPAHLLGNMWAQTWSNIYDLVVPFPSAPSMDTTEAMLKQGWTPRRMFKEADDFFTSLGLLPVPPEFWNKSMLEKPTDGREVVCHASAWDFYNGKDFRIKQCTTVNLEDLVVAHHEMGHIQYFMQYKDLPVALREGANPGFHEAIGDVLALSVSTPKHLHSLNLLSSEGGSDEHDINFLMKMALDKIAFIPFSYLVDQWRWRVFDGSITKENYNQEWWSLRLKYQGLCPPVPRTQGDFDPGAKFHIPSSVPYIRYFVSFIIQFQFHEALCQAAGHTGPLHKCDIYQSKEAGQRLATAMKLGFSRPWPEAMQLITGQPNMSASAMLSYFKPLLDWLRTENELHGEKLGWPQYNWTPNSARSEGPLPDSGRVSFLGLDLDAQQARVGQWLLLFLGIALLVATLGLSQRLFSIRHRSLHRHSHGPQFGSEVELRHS

Regarding `CCCCCCCCCCCCCCCC(=O)NCC(=O)N[C@@H](CCC(N)=O)C(=O)N1CCC[C@H]1C(=O)N[C@@H](CCCNC(=N)N)C(=O)O` [N-Palmitoyl-Gly-Gln-Pro-Arg] (Palmitoyl-GQPR-OH), the “Cytotoxic effect (cell viability, MTT)” value in data set [1] is recorded as “does not exert any cytotoxic effect”.

In data set [2] (peptide 10 ppm), H-Val-Trp returned an Inhibition of 27.3% and a ΔOD of 0.080. Besides, in data set [2] (peptide 50 ppm), the Inhibition is 83.4% and the ΔOD was 0.018.

Regarding H-Val-Trp (peptide), in data set [3], the Inhibition (converting enzyme activity, FAPGG hydrolysis, ΔOD at 340 nm), peptide at 10 ppm was determined as 27.3% and the Inhibition (converting enzyme activity, FAPGG hydrolysis, ΔOD at 340 nm), peptide at 50 ppm came out at 83.4%.

Regarding “angiotensin converting enzyme (EC 3.4.15.1)”, in data set [4], the ΔOD (340 nm, FAPGG hydrolysis by converting enzyme), peptide at 10 ppm is 0.08 ΔOD and the ΔOD (340 nm, FAPGG hydrolysis by converting enzyme), peptide at 50 ppm is 0.018 ΔOD.
